From patent US8957033B2, “Inhibitor of sodium-dependent glucose transport protein and preparation method therefor and use thereof” (Beijing Prelude Pharm. SCI. & Tech. Co., Ltd., priority 2011, dated 2015)
Where two headings read alike, the source gives them in different places.

Assays:
[1] = Pharmacokinetic test in vivo in SD rats; set-up: species or system male SD rats; conditions: 10 mg/kg; for AUC(0-inf) / AUC(0-t) / C0 / MRT / half-life / Tmax / bioavailability: male, rat, plasma; for bioavailability: read-out: F (oral bioavailability)
Procedure: Compound 1, compound 2 and compound 3 were respectively dissolved in blank solution (5% 1-methyl-2-pyrrolidinone, 20% PEG-400 and 20 mM sodium diphosphate) in a concentration of 10 g/L.
Experimental animals are male SD rats of 6-8 weeks old, with weight of 190-215 g, which were purchased from Beijing Vital River Laboratory Animal Technology Co., Ltd. The SD rats were randomly divided into seven groups based on body weight, each group containing three rats. Wherein group 1 is the blank control group in which the blank solution was administrated intravenously.
Before the pharmacokinetic test, the SD rats were fasted for 16 hours, and then administrated intravenously (1 mL/kg; 10 mg/kg) or orally (1 mL/kg; 10 mg/kg) with single dose of the compound or blank solution according to Table 4. After administration 200 uL blood samples were collected regularly through jugular vein puncture, wherein for the group of animals administered intravenously, blood samples were collected at 0 minute, 15 minutes, 30 minutes, 1 hour, 2 hours, 4 hours, 8 hours and 24 hours after administration; for the group of animals administered orally, blood samples were collected at 0 minute, 15 minutes, 30 minutes, 45 minutes, 75 minutes, 135 minutes, 4 hours, 8 hours and 24 hours after administration. The blood samples were collected in a sample tube with EDTA, and immediately centrifuged under 4000 rpm for 0.5 minutes at 4° C., and then the plasma was transferred to another sample tube and stored at −20° C.
The method and instruments for pharmacokinetics test of samples were as follows: • HPLC: Shimadzu (DGV-20A3, Serial NO: SSI-3-0536; LC-20AD Serial NO: • L20104551674 USB and L20104551673 USB), CTC Analytics HTC PAL System (Serial NO: 4353); • MS: AB API4000 Q Trap LC/MS/MS instrument (Serial NO. AR19020706) • Column: Phenomenex Luna 5μ C18 (2.0×50 mm) • Mobile phase: 100% acetonitrile (2 mM ammonium acetate) and 100% water (2 mM ammonium acetate) • Quantitative Method: internal standard method

male SD rats [2] = assay: Oral glucose tolerance test, glucose 15 minutes after administration (Example 5); format: in vivo; conditions: 10 mg/kg orally; for Blood glucose / ΔAUC: Mean ± SD; for Effect on blood glucose level (in words): compared with the blank control group
Procedure: Compound 1, compound 2 and compound 3 were respectively dissolved in blank solutions (5% 1-methyl-2-pyrrolidinone, 20% PEG-400 and 20 mM sodium diphosphate) in the concentration of 10 g/L.
Experimental animals are male SD rats of 6-8 weeks old, with weight of 190-215 g, which were purchased from Beijing Vital River Laboratory Animal Technology Co., Ltd. The SD rats were randomly divided into four groups based on body weight, each group containing three rats. Wherein group 1 is the blank control group in which the rats were administrated with the above blank solution.
(§1) Before the test, the rats were fasted for 16 hours and then administrated orally with the blank solution or compounds. The blood glucose baseline level was measured at 15 minutes after administration, then the rats in each group were administrated orally with 50% glucose aqueous solution in an amount of 2 g/kg. The blood samples (1 drop) were taken from tail veins of rats in each group at 15 minutes, 30 minutes, 1 hour and 2 hours after oral administration of glucose, and the blood glucose level was measured by using Accu-Chek Aviva system.
(§2) Statistical analysis was conducted and the significance level was set to be P<0.05. The mean and standard deviation were calculated for all measurement parameters which were designed for study. One-way analysis of variance (ANOVA) was performed by software GraphPad Prism 5.0 after multiple comparisons among groups.

male SD rats [3] = assay: Oral glucose tolerance test, glucose 8 hours after administration (Example 6), blood glucose; format: in vivo; conditions: for Blood glucose / ΔAUC: 10 mg/kg orally, Mean ± SD; for Effect on blood glucose level (in words): glucose at 8 hours after administration, compared with the blank control group
Procedure: (§3) Preparation of the administrated drugs, and grouping and administration of the animals were the same as those in Example 5.
as §1, with “measured at 8 hours after administration,” for “measured at 15 minutes after administration,”
as §2

male SD rats [4] = assay: Urine glucose at end of glucose tolerance test (Example 6); format: in vivo; conditions: for Urine glucose: 10 mg/kg orally, urine collected at end of glucose tolerance test, Mean ± SD
Procedure: as §3
as §1, with “measured at 8 hours after administration,” for “measured at 15 minutes after administration,”
At the end of the test, urine of the rats in each group was collected, and then the urine glucose level was analyzed by using TOSHIBA TBA-40FR automatic biochemical analyzer.
as §2

[5] = 2 μM
Procedure: (§4) 1) Master solution was prepared according to Table 1, and then the test compounds and control compound were added into the master solution, with the final concentration of these compounds in the reaction system being 2 μM. Then the mixed solution was preheated at 37° C. for 2 minutes.
(§5) 2) NADPH was added into the mixed solution with the final concentration of NADPH being 1 mM, and then the reaction system was incubated at 37° C. The blank control was also added with the same volume of ultrapure water instead of NADPH.
(§6) 3) 50 μL aliquots were taken out from the reaction system at 0, 15, 30, 45 and 60 minutes, and added with 3 volumes of cold methanol to terminate the reaction. The aliquot was centrifugated for 10 minutes under 16000 g to precipitate proteins. 100 μL of supernatant was used for LC/MS/MS analysis, to determine the amounts of the remaining test compounds and the control compound. The aliquots were detected in duplicate.
(§7) The instruments and conditions for LC analysis were as follows:
(§8) Shimadzu (Degasser DGU—20A3, Solvent Delivery Unit LC—20ADXR, System Controller CBM—20A, Column Oven CTO—10ASVP), CTC Analytics HTC PAL—XT System
(§9) Column: Phenomenex 5μ C 18 (2) (2.0×50 mm)
(§10) The instrument and conditions for MS/MS analysis were as follows: • AB API4000 LC/MS/MS instrument • Source: Turbo spray • Ionization mode: ESI • Type of scan: MRM • Collision gas: 6 L/min; curtain gas: 30 L/min; atomized gas: 50 L/min; auxiliary gas: 50 L/min; temperature: 500° C.; spray voltage: 4500 v.

[6] = male, 2 μM
Procedure: as §4, §5, §6, §7, §8, §9, §10

[7] = Stability test in vitro, human liver microsomes with NADPH; conditions: 2 μM, NADPH 1 mM, 37° C.
Procedure: as §4, §5, §6, §7, §8, §9, §10

[8] = Stability test in vitro, male rat liver microsomes with NADPH; conditions: 2 μM, NADPH 1 mM, 37° C.
Procedure: as §4, §5, §6, §7, §8, §9, §10

[9] = iv, administrated intravenously
[10] = glucose 2 g/kg 15 minutes after administration, 15 minutes after glucose
[11] = glucose 2 g/kg 15 minutes after administration, 30 minutes after glucose
[12] = glucose 2 g/kg 15 minutes after administration, 1 hour after glucose
[13] = glucose 2 g/kg 15 minutes after administration, 2 hours after glucose
[14] = glucose 2 g/kg 15 minutes after administration
[15] = time 0 (baseline 15 minutes after administration, before glucose 2 g/kg)
[16] = glucose 2 g/kg 8 hours after administration, 15 minutes after glucose
[17] = glucose 2 g/kg 8 hours after administration, 30 minutes after glucose
[18] = glucose 2 g/kg 8 hours after administration, 1 hour after glucose
[19] = glucose 2 g/kg 8 hours after administration, 2 hours after glucose
[20] = glucose 2 g/kg 8 hours after administration
[21] = time 0 (baseline 8 hours after administration, before glucose 2 g/kg)

CI_obs ([1]; administrated intravenously) [L/h/kg]	Vss_obs ([1]; administrated intravenously) [L/kg]	AUC(0-inf) [1, 9] [µg·h/mL]	AUC(0-t) [1, 9] [µg·h/mL]	C0 [1, 9] [µg/mL]	MRT [1, 9] [h]	half-life [1, 9] [h]	AUC(0-inf) ([1]; po, administrated orally) [µg·h/mL]	AUC(0-t) ([1]; po, administrated orally) [µg·h/mL]	C0 ([1]; po, administrated orally) [µg/mL]	Tmax ([1]; po, administrated orally) [h]	half-life ([1]; po, administrated orally) [h]	bioavailability ([1]; po, administrated orally) [%]	Structure (SMILES)	Blood glucose (male SD rats [2]; [10]) [mg/dL]	Blood glucose (male SD rats [2]; [11]) [mg/dL]	Blood glucose (male SD rats [2]; [12]) [mg/dL]	Blood glucose (male SD rats [2]; [13]) [mg/dL]	ΔAUC (male SD rats [2]; [14]) [mg·h/dL]	Blood glucose (male SD rats [2]; [15]) [mg/dL]	Blood glucose (male SD rats [3]; [16]) [mg/dL]	other results
0.179	0.903	56.5	55.8	11	4.76	3.95	39.1	41.4	3.88	1.25	4.14	69.1	CCOc1ccc(Cc2cc([C@@H]3O[C@H](CO)[C@@H](O)[C@H](O)[C@H]3O)ccc2Cl)cc1 [Compound 1, Dapagliflozin, reference compound]	97.2 ± 17.36	102.6 ± 20.44	94.8 ± 17.11	72.0 ± 10.95	20.2 ± 19.32	85.2 ± 4.53	96.60 ± 21.70	Blood glucose (male SD rats [3]; [17]): 131.40 ± 8.25 mg/dL; Blood glucose (male SD rats [3]; [18]): 123.60 ± 4.53 mg/dL; Blood glucose (male SD rats [3]; [19]): 72.60 ± 6.81 mg/dL; ΔAUC (male SD rats [3]; [20]): 107.90 ± 8.53 mg·h/dL; Blood glucose (male SD rats [3]; [21]): 50.40 ± 9.52 mg/dL; Urine glucose (male SD rats [4]): 294.90 ± 12.29 mmol/L; Residual percentage of compounds in human liver microsome ([5]; 0 min): 100.00%; Residual percentage of compounds in human liver microsome ([5]; 15 min): 100.36%; Residual percentage of compounds in human liver microsome ([5]; 30 min): 102.10%; Residual percentage of compounds in human liver microsome ([5]; 45 min): 101.77%; Residual percentage of compounds in rat liver microsome ([6]; 0 min): 100.00%; Residual percentage of compounds in rat liver microsome ([6]; 15 min): 88.37%; Residual percentage of compounds in rat liver microsome ([6]; 30 min): 90.68%; Residual percentage of compounds in rat liver microsome ([6]; 45 min): 83.66%
0.0954	1.18	107	87.8	11.3	7.35	9.8	193	77.3	5.09	1.25	30	88	OC[C@H]1O[C@@H](c2ccc(Cl)c(Cc3ccc(OCC(F)(F)F)cc3)c2)[C@H](O)[C@@H](O)[C@@H]1O [Compound 2]	126.6 ± 26.11	143.4 ± 24.44	138.6 ± 17.17	97.2 ± 13.59	77.2 ± 20.44	85.8 ± 2.75	103.20 ± 12.64	Effect on blood glucose level (in words) (male SD rats [2]): effect of lowering blood glucose level; Blood glucose (male SD rats [3]; [17]): 154.20 ± 2.75 mg/dL; Blood glucose (male SD rats [3]; [18]): 141.00 ± 2.08 mg/dL; Blood glucose (male SD rats [3]; [19]): 85.20 ± 1.04 mg/dL; ΔAUC (male SD rats [3]; [20]): 115.00 ± 3.55 mg·h/dL; Blood glucose (male SD rats [3]; [21]): 62.40 ± 2.75 mg/dL; Effect on blood glucose level (in words) (male SD rats [3]): effect of lowering blood glucose level; Urine glucose (male SD rats [4]): 197.90 ± 56.27 mmol/L; Urine glucose level (in words) (male SD rats [4]; compared to the blank control group, oral administration): significantly increased; Residual percentage of compounds in human liver microsome ([7]; sampling time 0 minute): 100.00%; Residual percentage of compounds in human liver microsome ([7]; sampling time 15 minutes): 80.84%; Residual percentage of compounds in human liver microsome ([7]; sampling time 30 minutes): 78.78%; Residual percentage of compounds in human liver microsome ([7]; sampling time 45 minutes): 76.73%; Residual percentage of compounds in human liver microsome ([7]; sampling time 60 minutes): 75.34%; Residual percentage of compounds in rat liver microsome ([8]; sampling time 0 minute): 100.00%; Residual percentage of compounds in rat liver microsome ([8]; sampling time 15 minutes): 88.20%; Residual percentage of compounds in rat liver microsome ([8]; sampling time 30 minutes): 94.51%; Residual percentage of compounds in rat liver microsome ([8]; sampling time 45 minutes): 91.65%; Residual percentage of compounds in rat liver microsome ([8]; sampling time 60 minutes): 88.27%
0.045	1.56	260	113	6.63	10.1	28.3	44.7	20.8	1.4	8	20.4	17.2	OC[C@H]1O[C@@H](c2ccc(Cl)c(C(F)(F)c3ccc(OCC(F)(F)F)cc3)c2)[C@H](O)[C@@H](O)[C@@H]1O [Compound 3]	143.4 ± 18.91	172.8 ± 25.01	148.2 ± 11.98	88.8 ± 17.11	87.6 ± 15.90	90.0 ± 13.59	148.80 ± 9.06	Effect on blood glucose level (in words) (male SD rats [2]): effect of lowering blood glucose level; Blood glucose (male SD rats [3]; [17]): 198.60 ± 8.51 mg/dL; Blood glucose (male SD rats [3]; [18]): 183.00 ± 12.25 mg/dL; Blood glucose (male SD rats [3]; [19]): 128.40 ± 3.75 mg/dL; ΔAUC (male SD rats [3]; [20]): 144.40 ± 18.72 mg·h/dL; Blood glucose (male SD rats [3]; [21]): 90.00 ± 1.80 mg/dL; Effect on blood glucose level (in words) (male SD rats [3]): effect of lowering blood glucose level; Urine glucose (male SD rats [4]): 0.10 ± 0.17 mmol/L; Residual percentage of compounds in human liver microsome ([7]; sampling time 0 minute): 100.00%; Residual percentage of compounds in human liver microsome ([7]; sampling time 15 minutes): 105.74%; Residual percentage of compounds in human liver microsome ([7]; sampling time 30 minutes): 98.43%; Residual percentage of compounds in human liver microsome ([7]; sampling time 45 minutes): 101.18%; Residual percentage of compounds in human liver microsome ([7]; sampling time 60 minutes): 97.89%; Residual percentage of compounds in rat liver microsome ([8]; sampling time 0 minute): 100.00%; Residual percentage of compounds in rat liver microsome ([8]; sampling time 15 minutes): 99.00%; Residual percentage of compounds in rat liver microsome ([8]; sampling time 30 minutes): 92.49%; Residual percentage of compounds in rat liver microsome ([8]; sampling time 45 minutes): 97.25%; Residual percentage of compounds in rat liver microsome ([8]; sampling time 60 minutes): 108.11%
